One test has as its system HepG2. In words: MTT cell viability assay, HepG2. The class given is cell-based. Conditions: 48 hours, human hepatoma HepG2, average of at least six independent experiments. Here is the method: (§1) Human hepatoma (HepG2 and Hep 3B) and human breast cancer (MCF-7) cell lines were obtained from American Type Culture Collection (Rockville, Md., USA). HepG2 and Hep 3B cells were cultured in MEM alpha medium (Invitrogen/Gibco BRL, Grand Island, N.Y., USA) and MCF-7 cells were cultured in DMEM medium (Invitrogen/Gibco BRL). All cells were cultured at 37° C. in 5% CO2 in culture media supplemented with 10% fetal bovine serum (Invitrogen/Gibco BRL) and 100 U/ml streptomycin and penicillin (Invitrogen/Gibco BRL). For treatment, cells were seeded in six-well plates at 6.25×10^5 cells/well. On the following day, the media were changed to serum-free and the cells were serum-starved for 24 h. […]
(§2) The MTT (3-(4, 5-dimethylthiazol-2-yl)-2,5-diphenyl tetrazolium bromide) cell viability assay is a colorimetric assay system, which measures the reduction of a tetrazolium component (MTT) into an insoluble blue/purple colored formazan product by succinate tetrazolium reductase in mitochondria of viable cells. The absorbance of the complex is read spectrophotometrically and is directly proportional to the number of live or viable cells. […]
(§3) To each of the 96 well plates seeded at a density of 5,000 cells per well, a known concentration of test compounds were added individually. […] The IC50 value was determined by a nonlinear curve fitting program using the GraphPad prism software v 4.01.

The subject of another test is MCF-7. Briefly: MTT cell viability assay, MCF-7. The class given is cell-based. The settings on record: MCF7, 48 hours, human breast cancer MCF-7, average of at least six independent experiments. Here is the method:
as §1, §2, §3

The next test relates to Hep3B. Briefly: MTT cell viability assay, Hep3B. The settings on record: 48 hours, human hepatoma Hep3B, average of at least six independent experiments. The class given is cell-based. Here is the method:
as §1, §2, §3
For orientation: Formazan colour is commonly taken as a measure of viable cells.

The next test deals with Hep 3B. The settings on record: based on the prior published result; read-out: IC50 against Hep 3B; cited from earlier work.

Some results are limits rather than exact numbers.

For `CC(C)=CCC/C(C)=C/CC/C(C)=C/CC1C(O)C=CC(=O)C1C` (stereo not shown) [Compound 3], the IC50 – broadly, the concentration needed to halve the response being measured – turned out to be 156 nM in the test with HepG2, 108 nM with MCF-7 and 4.3 nM in the test with Hep3B.
In the same order, the values of `CC(C)=CCC/C(C)=C/CC/C(C)=C/Cc1c(O)ccc(O)c1C` [Compound 1] are 948 nM, 519 nM and 325 nM.
In the case of `COC1=C(OC)C(O)C(CC=C(C)CCC=C(C)CCC=C(C)C)C(C)C1=O` (stereo not shown) [4-hydroxy-2,3-dimethoxy-6-methyl-5-(3,7,11-trimethyldodeca-2,6,10-trienyl)cyclohex-2-enone], the 50% inhibitory concentration (IC50) in the test with Hep 3B was over 30000 nM.

The values are drawn from patent US20160237012A1, “ANTICANCER AGENTS AND PROCESS OF MAKING THEREOF” (Golden Biotechnology Corporation, priority 2015, published 2016).
